Data as given in US20070128217A1 (priority 2003, published 2007).

Columns and labels:
[1] = tested on: antibodies in sera from SARS patients (sera 1a, 1b, 2, 6, 37, 62, London, SARS-yellow, SARS-green); format: binding, human; design: Binding of serum 6 to linear peptides of protein X1 of SARS-CoV Urbani / Binding of serum 37 to linear peptides of protein X1 of SARS-CoV Urbani / Binding of serum 6 to looped/cyclic peptide (PEPSCAN-ELISA) / Binding of serum 37 to looped/cyclic peptide (PEPSCAN-ELISA) / Binding of serum 37 to looped/cyclic peptides of protein X1 of SARS-CoV Urbani / Binding of serum 6 to linear peptides of protein X2 / Binding of serum 37 to linear peptides of protein X2 / Binding of serum 37 to looped/cyclic peptides of protein X2 of SARS-CoV Urbani / Binding of serum 6 to linear peptides of protein M of SARS-CoV Urbani / Binding of serum 37 to linear peptides of protein M of SARS-CoV Urbani / Binding of serum 6 to looped/cyclic peptides of protein M of SARS-CoV Urbani / Binding of serum 37 to looped/cyclic peptides of protein M of SARS-CoV Urbani / Binding of serum 6 to linear peptides of protein X3 of SARS-CoV Urbani / Binding of serum 37 to linear peptides of protein X3 of SARS-CoV Urbani / Binding of serum 37 to looped/cyclic peptides of protein X3 of SARS-CoV Urbani / Binding of serum 6 to linear peptides of protein X4 of SARS-CoV Urbani / Binding of serum 37 to linear peptides of protein X4 of SARS-CoV Urbani / Binding of serum 37 to looped/cyclic peptides of protein X4 of SARS-CoV Urbani / Binding of serum 6 to linear peptides of protein X5 of SARS-CoV Urbani / Binding of serum 37 to linear peptides of protein X5 of SARS-CoV Urbani / Binding of serum 37 to looped/cyclic peptides of protein X5 of SARS-CoV Urbani / Binding of serum 6 to linear peptides of protein N of SARS-CoV Urbani / Binding of serum 37 to linear peptides of protein N of SARS-CoV Urbani / Binding of serum 6 to linear peptide (PEPSCAN-ELISA) / Binding of serum 1a to looped/cyclic peptides of protein N of SARS-CoV Urbani / Binding of serum 1b to looped/cyclic peptides of protein N of SARS-CoV Urbani / Binding of serum 2 to looped/cyclic peptides of protein N of SARS-CoV Urbani / Binding of serum 6 to looped/cyclic peptides of protein N of SARS-CoV Urbani / Binding of serum 37 to looped/cyclic peptides of protein N of SARS-CoV Urbani / Binding of serum 62 to looped/cyclic peptides of protein N of SARS-CoV Urbani / Binding of serum London to looped/cyclic peptides of protein N of SARS-CoV Urbani / Binding of serum SARS-green to looped/cyclic peptides of protein N of SARS-CoV Urbani: unit not given here
[2] = tested on: control sera (pooled serum of ten healthy LUMC hospital workers; commercial negative donor pooled serum from the Dutch bloodbank); format: binding, human; design: Binding of Control serum LUMC to linear peptides / Binding of Control serum Blood-bank to linear peptides / Binding of Control serum LUMC to looped peptides / Binding of Control Serum Blood-Bank to Looped peptides / Binding of Control serum LUMC to linear peptides of the protein M of SARS-CoV Urbani / Binding of Control serum Blood-bank to linear peptides of the protein M of SARS-CoV Urbani / Binding of Control serum LUMC to looped peptides of the protein M of SARS-CoV Urbani / Binding of Control Serum Blood-Bank to Looped peptides of the protein M of SARS-CoV Urbani: unit not given here
[3] = tested on: rabbit serum obtained by immunizing a rabbit with the SARS-CoV strain Frankfurt 1; format: binding; design: Binding of a rabbit serum to linear peptides / Binding of a rabbit serum to looped peptides / Rabbit serum linear peptides / Rabbit serum looped peptides / Binding of a rabbit serum to linear peptides of protein N of SARS-CoV Urbani (Rabbit serum linear peptides) / Binding of a rabbit serum to looped/cyclic peptides of protein N of SARS-CoV Urbani (Rabbit serum looped peptides): unit not given here
[4] = tested on: recombinant human anti-SARS-CoV antibody 03-018; format: binding; design: Binding of antibody 03-018 to linear peptides of the N protein of SARS-CoV Urbani / Binding of antibody 03-018 to looped/cyclic peptides of the N protein of SARS-CoV Urbani: unit not given here

Sequence: FTALTQHGKEELRFP
- Binding of serum 1a to linear peptides of protein N of SARS-CoV Urbani [1]: 0.3
- Binding of serum 1a to looped/cyclic peptides of protein N of SARS-CoV Urbani [1]: 0.2
- Binding of serum 1b to linear peptides of protein N of SARS-CoV Urbani [1]: 0.2
- Binding of serum 1b to looped/cyclic peptides of protein N of SARS-CoV Urbani [1]: 0.1
- Binding of serum 2 to linear peptides of protein N of SARS-CoV Urbani [1]: 0.3
- Binding of serum 2 to looped/cyclic peptides of protein N of SARS-CoV Urbani [1]: 0.3
- Binding of serum 6 to linear peptides of protein N of SARS-CoV Urbani [1]: 0.2
- Binding of serum 6 to looped/cyclic peptides of protein N of SARS-CoV Urbani [1]: 0.1
- Binding of serum 37 to linear peptides of protein N of SARS-CoV Urbani [1]: 0.8
- Binding of serum 37 to looped/cyclic peptides of protein N of SARS-CoV Urbani [1]: 0.4
- Binding of serum 62 to linear peptides of protein N of SARS-CoV Urbani [1]: 0.7
- Binding of serum 62 to looped/cyclic peptides of protein N of SARS-CoV Urbani [1]: 0.3
- Binding of serum London to linear peptides of protein N of SARS-CoV Urbani [1]: 0.5
- Binding of serum London to looped/cyclic peptides of protein N of SARS-CoV Urbani [1]: 0.2
- Binding of serum SARS-green to linear peptides of protein N of SARS-CoV Urbani [1]: 0.7
- Binding of serum SARS-green to looped/cyclic peptides of protein N of SARS-CoV Urbani [1]: 0.0
- Binding of serum SARS-yellow to linear peptides of protein N of SARS-CoV Urbani [1]: 0.6
- Binding of serum SARS-yellow to looped/cyclic peptides of protein N of SARS-CoV Urbani [1]: 0.1
- Binding of Control Serum Blood-Bank to Looped peptides [2]: 0.5
- Binding of Control serum Blood-bank to linear peptides [2]: 0.7
- Binding of Control serum LUMC to linear peptides [2]: 0.7
- Binding of Control serum LUMC to looped peptides [2]: 0.3
- Binding of a rabbit serum to linear peptides of protein N of SARS-CoV Urbani (Rabbit serum linear peptides) [3]: 0.2
- Binding of a rabbit serum to looped/cyclic peptides of protein N of SARS-CoV Urbani (Rabbit serum looped peptides) [3]: 0.1
- Binding of antibody 03-018 to linear peptides of the N protein of SARS-CoV Urbani [4]: 0.1
- Binding of antibody 03-018 to looped/cyclic peptides of the N protein of SARS-CoV Urbani [4]: 0.2

Sequence: FYYLGTGPEASLPYG
- Binding of serum 1a to linear peptides of protein N of SARS-CoV Urbani [1]: 0.3
- Binding of serum 1a to looped/cyclic peptides of protein N of SARS-CoV Urbani [1]: 0.4
- Binding of serum 1b to linear peptides of protein N of SARS-CoV Urbani [1]: 0.1
- Binding of serum 1b to looped/cyclic peptides of protein N of SARS-CoV Urbani [1]: 0.3
- Binding of serum 2 to linear peptides of protein N of SARS-CoV Urbani [1]: 0.2
- Binding of serum 2 to looped/cyclic peptides of protein N of SARS-CoV Urbani [1]: 0.4
- Binding of serum 6 to linear peptides of protein N of SARS-CoV Urbani [1]: 0.2
- Binding of serum 6 to looped/cyclic peptides of protein N of SARS-CoV Urbani [1]: 0.2
- Binding of serum 37 to linear peptides of protein N of SARS-CoV Urbani [1]: 0.6
- Binding of serum 37 to looped/cyclic peptides of protein N of SARS-CoV Urbani [1]: 0.7
- Binding of serum 62 to linear peptides of protein N of SARS-CoV Urbani [1]: 0.7
- Binding of serum 62 to looped/cyclic peptides of protein N of SARS-CoV Urbani [1]: 0.6
- Binding of serum London to linear peptides of protein N of SARS-CoV Urbani [1]: 0.5
- Binding of serum London to looped/cyclic peptides of protein N of SARS-CoV Urbani [1]: 0.5
- Binding of serum SARS-green to linear peptides of protein N of SARS-CoV Urbani [1]: 0.4
- Binding of serum SARS-green to looped/cyclic peptides of protein N of SARS-CoV Urbani [1]: 0.4
- Binding of serum SARS-yellow to linear peptides of protein N of SARS-CoV Urbani [1]: 0.7
- Binding of serum SARS-yellow to looped/cyclic peptides of protein N of SARS-CoV Urbani [1]: 0.7
- Binding of Control Serum Blood-Bank to Looped peptides [2]: 0.7
- Binding of Control serum Blood-bank to linear peptides [2]: 0.6
- Binding of Control serum LUMC to linear peptides [2]: 0.7
- Binding of Control serum LUMC to looped peptides [2]: 0.7
- Binding of a rabbit serum to linear peptides of protein N of SARS-CoV Urbani (Rabbit serum linear peptides) [3]: 0.1
- Binding of a rabbit serum to looped/cyclic peptides of protein N of SARS-CoV Urbani (Rabbit serum looped peptides) [3]: 0.6
- Binding of antibody 03-018 to linear peptides of the N protein of SARS-CoV Urbani [4]: 0.1
- Binding of antibody 03-018 to looped/cyclic peptides of the N protein of SARS-CoV Urbani [4]: 0.2

Sequence: GAIKLDDKDPQFKDN
- Binding of serum 1a to linear peptides of protein N of SARS-CoV Urbani [1]: 0.2
- Binding of serum 1a to looped/cyclic peptides of protein N of SARS-CoV Urbani [1]: 0.3
- Binding of serum 1b to linear peptides of protein N of SARS-CoV Urbani [1]: 0.1
- Binding of serum 1b to looped/cyclic peptides of protein N of SARS-CoV Urbani [1]: 0.2
- Binding of serum 2 to linear peptides of protein N of SARS-CoV Urbani [1]: 0.2
- Binding of serum 2 to looped/cyclic peptides of protein N of SARS-CoV Urbani [1]: 0.4
- Binding of serum 6 to linear peptides of protein N of SARS-CoV Urbani [1]: 0.2
- Binding of serum 6 to looped/cyclic peptides of protein N of SARS-CoV Urbani [1]: 0.2
- Binding of serum 37 to linear peptides of protein N of SARS-CoV Urbani [1]: 0.7
- Binding of serum 37 to looped/cyclic peptides of protein N of SARS-CoV Urbani [1]: 0.5
- Binding of serum 62 to linear peptides of protein N of SARS-CoV Urbani [1]: 0.9
- Binding of serum 62 to looped/cyclic peptides of protein N of SARS-CoV Urbani [1]: 0.5
- Binding of serum London to linear peptides of protein N of SARS-CoV Urbani [1]: 0.6
- Binding of serum London to looped/cyclic peptides of protein N of SARS-CoV Urbani [1]: 0.4
- Binding of serum SARS-green to linear peptides of protein N of SARS-CoV Urbani [1]: 0.5
- Binding of serum SARS-green to looped/cyclic peptides of protein N of SARS-CoV Urbani [1]: 0.8
- Binding of serum SARS-yellow to linear peptides of protein N of SARS-CoV Urbani [1]: 0.7
- Binding of serum SARS-yellow to looped/cyclic peptides of protein N of SARS-CoV Urbani [1]: 0.5
- Control Serum Blood-Bank Looped peptides [2]: 0.6
- Control serum Blood-bank linear peptides [2]: 0.7
- Control serum LUMC linear peptides [2]: 0.7
- Control serum LUMC looped peptides [2]: 0.5
- Binding of a rabbit serum to linear peptides of protein N of SARS-CoV Urbani (Rabbit serum linear peptides) [3]: 0.1
- Binding of a rabbit serum to looped/cyclic peptides of protein N of SARS-CoV Urbani (Rabbit serum looped peptides) [3]: 0.3
- Binding of antibody 03-018 to linear peptides of the N protein of SARS-CoV Urbani [4]: 0.1
- Binding of antibody 03-018 to looped/cyclic peptides of the N protein of SARS-CoV Urbani [4]: 0.2

Sequence: GANKEGIVWVATEGA
- Binding of serum 1a to linear peptides of protein N of SARS-CoV Urbani [1]: 0.2
- Binding of serum 1a to looped/cyclic peptides of protein N of SARS-CoV Urbani [1]: 0.2
- Binding of serum 1b to linear peptides of protein N of SARS-CoV Urbani [1]: 0.1
- Binding of serum 1b to looped/cyclic peptides of protein N of SARS-CoV Urbani [1]: 0.1
- Binding of serum 2 to linear peptides of protein N of SARS-CoV Urbani [1]: 0.2
- Binding of serum 2 to looped/cyclic peptides of protein N of SARS-CoV Urbani [1]: 0.2
- Binding of serum 6 to linear peptides of protein N of SARS-CoV Urbani [1]: 0.1
- Binding of serum 6 to looped/cyclic peptides of protein N of SARS-CoV Urbani [1]: 0.1
- Binding of serum 37 to linear peptides of protein N of SARS-CoV Urbani [1]: 0.7
- Binding of serum 37 to looped/cyclic peptides of protein N of SARS-CoV Urbani [1]: 0.5
- Binding of serum 62 to linear peptides of protein N of SARS-CoV Urbani [1]: 0.6
- Binding of serum 62 to looped/cyclic peptides of protein N of SARS-CoV Urbani [1]: 0.3
- Binding of serum London to linear peptides of protein N of SARS-CoV Urbani [1]: 0.4
- Binding of serum London to looped/cyclic peptides of protein N of SARS-CoV Urbani [1]: 0.3
- Binding of serum SARS-green to linear peptides of protein N of SARS-CoV Urbani [1]: 0.2
- Binding of serum SARS-green to looped/cyclic peptides of protein N of SARS-CoV Urbani [1]: 0.2
- Binding of serum SARS-yellow to linear peptides of protein N of SARS-CoV Urbani [1]: 0.6
- Binding of serum SARS-yellow to looped/cyclic peptides of protein N of SARS-CoV Urbani [1]: 0.4
- Binding of Control Serum Blood-Bank to Looped peptides [2]: 0.4
- Binding of Control serum Blood-bank to linear peptides [2]: 0.5
- Binding of Control serum LUMC to linear peptides [2]: 0.5
- Binding of Control serum LUMC to looped peptides [2]: 0.5
- Binding of a rabbit serum to linear peptides of protein N of SARS-CoV Urbani (Rabbit serum linear peptides) [3]: 0.2
- Binding of a rabbit serum to looped/cyclic peptides of protein N of SARS-CoV Urbani (Rabbit serum looped peptides) [3]: 0.5
- Binding of antibody 03-018 to linear peptides of the N protein of SARS-CoV Urbani [4]: 0.1
- Binding of antibody 03-018 to looped/cyclic peptides of the N protein of SARS-CoV Urbani [4]: 0.2
